Molecular target: RIPK1 (Homo sapiens (Human), UniProt Q13546)
Assay: RIPK1-ADP-Glo Enzymatic Assay
Format: biochemical
Conditions: recombinant GST-RIPK1 kinase domain (residues 1-327), 25 nM, ten-point titration, 30 minutes pre-incubation
Method: The enzymatic activity of RIPK1 was measured using an assay derived from ADP-Glo kit (™Promega), which provides a luminescent-based ADP detection system. Specifically, the ADP generated by RIPK1 kinase was proportionally detected as luminescent signals in a homogenous fashion. In this context, the assessment of the inhibitory effect of small molecules (EC50) was measured by the effectiveness of the compounds to inhibit the ATP to ADP conversion by RIPK1.
In this assay, the potency (EC50) of each compound was determined from a ten-point (1:3 serial dilution: top compound concentration of 100000 nM) titration curve using the following outlined procedure. To each well of a white ProxiPlus 384 well-plate, 30 nL of compound (1% DMSO in final assay volume of 3 μL) was dispensed, followed by the addition of 2 μL of 1x assay buffer (25 mM Hepes 7.3, 20 mM MgCl2, 50 mM NaCl, 1 mM DTT, 0.005% Tween20, and 0.02% BSA) containing 37.5 nM of GST-RIPK1 (recombinant GST-RIPK1 kinase domain (residues 1-327) enzyme produced from baculovirus-transfected Sf21 cells: MW=62 kDa). Plates were placed in an ambient temperature humidified chamber for a 30 minutes pre-incubation with compound. Subsequently, each reaction was initiated by the addition of 1 μL 1× assay buffer containing […] dephosphorylated-MBP substrate. The final reaction in each well of 3 μL consists of 25 nM of GST-RIPK1, 300 µM ATP, and 3 μM dephosphorylated-MBP. Kinase reactions were allowed to proceed for 150 minutes prior to adding ADP-Glo reagents per Promega's outlined kit protocol. Dose-response curves were generated by plotting percent effect (% product conversion: Y-axis) vs. Logio compound concentrations (X-axis). EC50 values were calculated using a non-linear regression, four-parameters sigmoidal dose-response model and are provided for example compounds of the invention (labeled “RIPK1 EC50 (nM)” throughout the above examples).

Sequence of RIPK1 (Q13546 1-327): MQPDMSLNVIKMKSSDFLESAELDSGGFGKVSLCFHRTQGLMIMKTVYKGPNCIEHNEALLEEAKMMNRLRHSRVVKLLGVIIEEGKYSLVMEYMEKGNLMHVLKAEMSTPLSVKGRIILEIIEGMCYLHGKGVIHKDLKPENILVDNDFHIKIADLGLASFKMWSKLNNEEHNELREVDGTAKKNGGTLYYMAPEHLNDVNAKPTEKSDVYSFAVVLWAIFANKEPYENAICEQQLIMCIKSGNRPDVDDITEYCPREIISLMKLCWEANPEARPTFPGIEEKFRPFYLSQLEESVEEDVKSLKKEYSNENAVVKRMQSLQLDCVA

Compound	EC50
CN(C)c1nc(Cl)cc(N2CCC3(CC2)CN2CC[C@@H](c4cc(F)cc(F)c4)N2C3=O)n1 [Example 1.30, (S)-1-(6-chloro-2-(dimethylamino)pyrimidin-4-yl)-7′-(3,5-difluorophenyl)dihydro-1′H,3′H,5′H-spiro[piperidine-4,2′-pyrazolo[1,2-a]pyrazol]-1′-one]	0.11 µM
COc1nc(OC)nc(N2CCC3(CC2)CN2CC[C@@H](c4cc(F)cc(F)c4)N2C3=O)n1 [Example 1.31, (S)-7′-(3,5-difluorophenyl)-1-(4,6-dimethoxy-1,3,5-triazin-2-yl)dihydro-1′H,3′H,5′H-spiro [piperidine-4,2′-pyrazolo[1,2-a]pyrazol]-1′-one]	0.285 µM
O=C1N2[C@H](c3cc(F)cc(F)c3)CCN2CC12CCN(c1ncc3c(n1)CCCC3)CC2 [Example 1.32, (S)-7′-(3,5-difluorophenyl)-1-(5,6,7,8-tetrahydroquinazolin-2-yl)dihydro-1′H,3′H,5′H-spiro[piperidine-4,2′-pyrazolo[1,2-a]pyrazol]-1′-one]	0.288 µM
O=C1N2[C@H](c3cc(F)cc(F)c3)CCN2CC12CCN(c1cc(-c3ccccc3)ncn1)CC2 [Example 1.35, (S)-7′-(3,5-difluorophenyl)-1-(6-phenylpyrimidin-4-yl)dihydro-1′H,3′H,5′H-spiro[piperidine-4,2′-pyrazolo[1,2-a]pyrazol]-1′-one]	0.015 µM
Cc1c(Cl)ncnc1N1CCC2(CC1)CN1CC[C@@H](c3cc(F)cc(F)c3)N1C2=O [Example 1.38, (S)-1-(6-chloro-5-methylpyrimidin-4-yl)-7′-(3,5-difluorophenyl)dihydro-1′H,3′H,5′H-spiro[piperidine-4,2′-pyrazolo[1,2-a]pyrazol]-1′-one]	0.02 µM
Cc1ncc(Cl)nc1N1CCC2(CC1)CN1CC[C@@H](c3cc(F)cc(F)c3)N1C2=O [Example 1.43, (S)-1-(6-chloro-3-methylpyrazin-2-yl)-7′-(3,5-difluorophenyl)dihydro-1′H,3′H,5′H-spiro[piperidine-4,2′-pyrazolo[1,2-a]pyrazol]-1′-one]	0.876 µM
O=C1N2[C@H](c3cc(F)cc(F)c3)CCN2CC12CCN(c1ccnc(C3CC3)n1)CC2 [Example 1.46, (S)-1-(2-cyclopropylpyrimidin-4-yl)-7′-(3,5-difluorophenyl)dihydro-1′H,3′H,5′H-spiro[piperidine-4,2′-pyrazolo[1,2-a]pyrazol]-1′-one]	0.059 µM
CC(C)c1nc(Cl)cc(N2CCC3(CC2)CN2CC[C@@H](c4cc(F)cc(F)c4)N2C3=O)n1 [Example 1.47, (S)-1-(6-chloro-2-isopropylpyrimidin-4-yl)-7′-(3,5-difluorophenyl)dihydro-1′H,3′H,5′H-spiro[piperidine-4,2′-pyrazolo[1,2-a]pyrazol]-1′-one]	0.153 µM
Cc1cc(N2CCC3(CC2)CN2CC[C@@H](c4cc(F)cc(F)c4)N2C3=O)nc(Cl)n1 [Example 1.48, (S)-1-(2-chloro-6-methylpyrimidin-4-yl)-7′-(3,5-difluorophenyl)dihydro-1′H,3′H,5′H-spiro[piperidine-4,2′-pyrazolo[1,2-a]pyrazol]-1′-one]	0.144 µM
N#Cc1c(F)c(F)nc(N2CCC3(CC2)CN2CC[C@@H](c4cc(F)cc(F)c4)N2C3=O)c1F [Example 1.51, (S)-2-(7′-(3,5-difluorophenyl)-1′-oxodihydro-1′H,3′H,5′H-spiro [piperidine-4,2′-pyrazolo[1,2-a]pyrazol]-1-yl)-3,5,6-trifluoroisonicotinonitrile]	0.189 µM
N#Cc1cc(Cl)nc(N2CCC3(CC2)CN2CC[C@@H](c4cc(F)cc(F)c4)N2C3=O)c1 [Example 1.52, (S)-2-chloro-6-(7′-(3,5-difluorophenyl)-1′-oxodihydro-1′H,3′H,5′H-spiro[piperidine-4,2′-pyrazolo[1,2-a]pyrazol]-1-yl)isonicotinonitrile]	0.054 µM
O=C1N2[C@H](c3cc(F)cc(F)c3)CCN2CC12CCN(c1nc(Cl)nc3[nH]ncc13)CC2 [Example 1.53, (S)-1-(6-chloro-1H-pyrazolo[3,4-d]pyrimidin-4-yl)-7′-(3,5-difluorophenyl)dihydro-1′H,3′H,5′H-spiro[piperidine-4,2′-pyrazolo[1,2-a]pyrazol]-1′-one]	0.857 µM
O=C1N2[C@H](c3cc(F)cc(F)c3)CCN2CC12CCN(c1ncc(C3CC3)cn1)CC2 [Example 1.56, (S)-1-(5-cyclopropylpyrimidin-2-yl)-7′-(3,5-difluorophenyl)dihydro-1′H,3′H,5′H-spiro[piperidine-4,2′-pyrazolo[1,2-a]pyrazol]-1′-one]	0.321 µM
O=C1N2[C@H](c3cc(F)cc(F)c3)CCN2CC12CCN(c1ncc(F)c(C(F)F)n1)CC2 [Example 1.57, (S)-1-(4-(difluoromethyl)-5-fluoropyrimidin-2-yl)-7′-(3,5-difluorophenyl)dihydro-1′H,3′H,5′H-spiro[piperidine-4,2′-pyrazolo[1,2-a]pyrazol]-1′-one]	0.026 µM

The next lines start with the values.

EC50	Compound
0.457 µM	O=C1N2[C@H](c3cc(F)cc(F)c3)CCN2CC12CCN(c1ccc(Cl)nn1)CC2 [Example 1.34, (S)-1-(6-chloropyridazin-3-yl)-7′-(3,5-difluorophenyl)dihydro-1′H,3′H,5′H-spiro[piperidine-4,2′-pyrazolo[1,2-a]pyrazol]-1′-one]
0.473 µM	N#Cc1ccc(N2CCC3(CC2)CN2CC[C@@H](c4cc(F)cc(F)c4)N2C3=O)nn1 [Example 1.37, (S)-6-(7′-(3,5-difluorophenyl)-1′-oxodihydro-1′H,3′H,5′H-spiro[piperidine-4,2′-pyrazolo[1,2-a]pyrazol]-1-yl)pyridazine-3-carbonitrile]
0.077 µM	O=C1N2[C@H](c3cc(F)cc(F)c3)CCN2CC12CCN(c1ccc(C(F)(F)F)cn1)CC2 [Example 1.39, (S)-7′-(3,5-difluorophenyl)-1-(5-(trifluoromethyl)pyridin-2-yl)dihydro-1′H,3′H,5′H-spiro[piperidine-4,2′-pyrazolo[1,2-a]pyrazol]-1′-one]
0.407 µM	O=C1N2[C@H](c3cc(F)cc(F)c3)CCN2CC12CCN(c1cncc(Cl)n1)CC2 [Example 1.40, (S)-1-(6-chloropyrazin-2-yl)-7′-(3,5-difluorophenyl)dihydro-1′H,3′H,5′H-spiro[piperidine-4,2′-pyrazolo[1,2-a]pyrazol]-1′-one]
0.308 µM	O=C1N2[C@H](c3cc(F)cc(F)c3)CCN2CC12CCN(c1cnccn1)CC2 [Example 1.41, (S)-7′-(3,5-difluorophenyl)-1-(pyrazin-2-yl)dihydro-1′H,3′H,5′H-spiro[piperidine-4,2′-pyrazolo[1,2-a]pyrazol]-1′-one]
0.086 µM	O=C1N2[C@H](c3cc(F)cc(F)c3)CCN2CC12CCN(c1cnc(Cl)cn1)CC2 [Example 1.42, (S)-1-(5-chloropyrazin-2-yl)-7′-(3,5-difluorophenyl)dihydro-1′H,3′H,5′H-spiro[piperidine-4,2′-pyrazolo[1,2-a]pyrazol]-1′-one]
0.274 µM	Cc1cc(N2CCC3(CC2)CN2CC[C@@H](c4cc(F)cc(F)c4)N2C3=O)nc(C(F)(F)F)n1 [Example 1.44, (S)-7′-(3,5-difluorophenyl)-1-(6-methyl-2-(trifluoromethyl)pyrimidin-4-yl)dihydro-1′H,3′H,5′H-spiro[piperidine-4,2′-pyrazolo[1,2-a]pyrazol]-1′-one]
0.176 µM	Cc1nccc(N2CCC3(CC2)CN2CC[C@@H](c4cc(F)cc(F)c4)N2C3=O)n1 [Example 1.45, (S)-7′-(3,5-difluorophenyl)-1-(2-methylpyrimidin-4-yl)dihydro-1′H,3′H,5′H-spiro[piperidine-4,2′-pyrazolo[1,2-a]pyrazol]-1′-one]
0.295 µM	CC(C)c1nccc(N2CCC3(CC2)CN2CC[C@@H](c4cc(F)cc(F)c4)N2C3=O)n1 [Example 1.49, (S)-7′-(3,5-difluorophenyl)-1-(2-isopropylpyrimidin-4-yl)dihydro-1′H,3′H,5′H-spiro[piperidine-4,2′-pyrazolo[1,2-a]pyrazol]-1′-one]
0.064 µM	N#Cc1ccc(N2CCC3(CC2)CN2CC[C@@H](c4cc(F)cc(F)c4)N2C3=O)nc1 [Example 1.50, (S)-6-(7′-(3,5-difluorophenyl)-1′-oxodihydro-1′H,3′H,5′H-spiro[piperidine-4,2′-pyrazolo[1,2-a]pyrazol]-1-yl)nicotinonitrile]
0.017 µM	O=C1N2[C@H](c3cc(F)cc(F)c3)CCN2CC12CCN(c1ncc(Br)cn1)CC2 [Example 1.54, (S)-1-(5-bromopyrimidin-2-yl)-7′-(3,5-difluorophenyl)dihydro-1′H,3′H,5′H-spiro[piperidine-4,2′-pyrazolo[1,2-a]pyrazol]-1′-one]
0.804 µM	O=C1N2[C@H](c3cc(F)cc(F)c3)CCN2CC12CCN(c1ncccn1)CC2 [Example 1.55, (S)-7′-(3,5-difluorophenyl)-1-(pyrimidin-2-yl)dihydro-1′H,3′H,5′H-spiro[piperidine-4,2′-pyrazolo[1,2-a]pyrazol]-1′-one]

Reference: patent publication US20240425524A1, “SPIROTRICYCLE RIPK1 INHIBITORS AND METHODS OF USES THEREOF” (Merck Sharp & Dohme LLC, priority 2021, published 2024)
